Measured values: patent US12448394B2, “Heterocyclic pyrazole derivatives as type III receptor tyrosine kinase inhibitors” (DEVELOPMENT CENTER FOR BIOTECHNOLOGY, priority 2019, dated 2025)

Assays:
[1] = system: A375 melanoma cell with BRAF V600E mutation; assay: A375 cell proliferation assay (counter screen); format: cell-based, human; conditions: Homo sapiens, A-375, A375 cells, 72 hours treatment, CellTiter96, read-out: anti-proliferation activity A375 BRAF V600E, IC50 ranking
Method in brief: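 A375 cells (BRAF V600E) seeded at 2000 cells/well in DMEM with 10% FBS, settled overnight at 37° C, 5% CO2, then exposed to increasing compound concentrations for 72 hours. Viability read by MTS-type CellTiter96 AQueous reagent, absorbance at 490 nm after 2–4 hours.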

[2] = system: MV4-11 human acute myeloid leukemia cell with FLT3-ITD mutation; assay: MV4-11 cell proliferation assay (CellTiter 96); format: cell-based; conditions: Homo sapiens, MV4-11, 72 h, MV4-11 cells, 72 hours treatment, CellTiter96; read-out: anti-proliferation activity MV4-11 (FLT3-ITD), IC50 ranking
Method in brief: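 Cells seeded at 6500/well in IMDM with 10% heat-inactivated FBS, left overnight at 37 °C, 5% CO2, then exposed to increasing compound concentrations for 72 h. Viability read as absorbance at 490 nm after 2–4 h with CellTiter96 AQueous One reagent.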

[3] = system: THP-1 human acute monocytic leukemia cell with NRAS G12D mutation; assay: THP-1 cell proliferation assay (counter screen); format: cell-based; conditions: Homo sapiens, THP-1 cells, 72 hours treatment, CellTiter96, read-out: anti-proliferation activity THP-1 NRAS N12D, IC50 ranking
Method in brief: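 Viability measured as 490 nm absorbance after 2–4 h with CellTiter96 AQueous One reagent, following 72 h treatment with rising compound concentrations. THP-1 cells, 5000/well, grown in RPMI 1640 with 10% FBS and 0.05 mM 2-mercaptoethanol at 37° C, 5% CO2, plated overnight before dosing.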

[4] = system: phosphorylation of FLT3 and its down-stream effector STAT5; assay: Western blotting of p-FLT3 and p-STAT5 in MV4-11 cells; format: cell-based; conditions: Homo sapiens; at 30 nM treatment, 3 hours, FLT3-ITD positive MV4-11 leukemia cells; read-out: inhibition activity against phosphorylation of FLT3 and its down-stream effector STAT5
Method in brief: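 MV4-11 cells held overnight in IMDM with 0.1% FBS, then 3 million cells treated with compound for 3 h. Whole lysates immunoblotted for p-FLT3 (Tyr-591), p-STAT5 (Tyr-694) and actin. Band intensities at 30 nM compared to DMSO control; % inhibition = (1 − relative intensity) × 100.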

[5] = target: T1, PDGFRα kinase (Homo sapiens, UniProt P16234); assay: PDGFRα kinase assay (AlphaScreen); format: biochemical; conditions: read-out: Ranking of IC50 values, PDGFRα
T1 construct: purchased SignalChem
T1 sequence (P16234 24-1089): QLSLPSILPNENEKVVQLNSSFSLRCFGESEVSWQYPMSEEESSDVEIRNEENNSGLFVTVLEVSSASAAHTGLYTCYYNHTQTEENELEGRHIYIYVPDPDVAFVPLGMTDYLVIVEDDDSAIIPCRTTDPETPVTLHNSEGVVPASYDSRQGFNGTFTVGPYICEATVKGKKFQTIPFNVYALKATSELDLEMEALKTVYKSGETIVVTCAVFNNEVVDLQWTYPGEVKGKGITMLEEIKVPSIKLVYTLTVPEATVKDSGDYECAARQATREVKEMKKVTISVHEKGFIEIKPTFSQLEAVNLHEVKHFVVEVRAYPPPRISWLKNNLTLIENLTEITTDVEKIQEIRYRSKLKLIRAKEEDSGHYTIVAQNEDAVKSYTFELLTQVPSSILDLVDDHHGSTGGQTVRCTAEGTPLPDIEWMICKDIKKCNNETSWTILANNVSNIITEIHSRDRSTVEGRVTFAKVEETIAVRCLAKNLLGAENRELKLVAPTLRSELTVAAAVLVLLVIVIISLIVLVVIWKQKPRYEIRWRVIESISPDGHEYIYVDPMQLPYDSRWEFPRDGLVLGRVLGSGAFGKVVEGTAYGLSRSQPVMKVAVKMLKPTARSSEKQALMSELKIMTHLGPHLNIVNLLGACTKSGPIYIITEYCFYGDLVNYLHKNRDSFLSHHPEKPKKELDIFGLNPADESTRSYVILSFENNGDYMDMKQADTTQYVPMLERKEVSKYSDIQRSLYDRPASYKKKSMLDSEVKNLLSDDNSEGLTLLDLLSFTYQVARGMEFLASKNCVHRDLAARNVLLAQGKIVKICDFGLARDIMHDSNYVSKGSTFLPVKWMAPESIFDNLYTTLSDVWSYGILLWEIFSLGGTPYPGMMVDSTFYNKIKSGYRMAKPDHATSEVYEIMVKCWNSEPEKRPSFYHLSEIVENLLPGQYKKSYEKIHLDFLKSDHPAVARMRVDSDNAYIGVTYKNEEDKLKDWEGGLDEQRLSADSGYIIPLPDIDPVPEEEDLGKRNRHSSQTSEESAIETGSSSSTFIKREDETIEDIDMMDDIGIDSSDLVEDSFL
Method in brief: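 IC50 values came from duplicate serial dilutions, with product read by AlphaScreen. The reaction ran 30 min at 30 °C, then EDTA stop: 1.5 ng recombinant enzyme, biotin-poly(Glu4:Tyr1) substrate, 10 μM ATP, 10 mM MOPS pH 7.0, 10 mM MgCl2.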

SMILES | IC50 [2] [µM] | IC50 [5] [µM] | IC50 [1] [µM] | IC50 [3] [µM] | inhibition at 0.03 µM [4] [%]
Cn1ncc2ccc(-c3n[nH]c4c3Cc3sc(-c5ccc(CCN6CCOCC6=O)cc5)cc3-4)cc21 [Compound 66, 4-(4-(3-(1-methyl-1H-indazol-6-yl)-1,4-dihydro-thieno[2′,3′:4,5]cyclopenta [1,2-c]pyrazol-6-yl)phenethyl)morpholin-3-one] | < 0.03 | > 1 | > 10 | > 10 | > 50
Cn1ncc2ccc(-c3n[nH]c4c3Cc3sc(-c5ccc(OCCN6CCOCC6)cc5)cc3-4)cc21 [Compound 69, 4-(2-(4-(3-(1-methyl-1H-indazol-6-yl)-1,4-dihydro-thieno[2′,3′:4,5]cyclopenta [1,2-c]pyrazol-6-yl)phenoxy)ethyl)morpholine] | < 0.03 | 0.01 to 0.03 | > 10 | > 10 | > 50
Cn1ncc2ccc(-c3n[nH]c4c3Cc3sc(C#CCN5CCOCC5)cc3-4)cc21 [Compound 71, 4-(3-(3-(1-methyl-1H-indazol-6-yl)-1,4-dihydro-thieno[2′,3′:4,5]cyclopenta [1,2-c]pyrazol-6-yl)prop-2-yn-1-yl)morpholine] | < 0.03 | 0.03 to 0.1 | 1 to 10 | 1 to 10 | > 50
Cn1ncc2ccc(-c3n[nH]c4c3Cc3sc(-c5ccc(NC6CCOCC6)cc5)cc3-4)cc21 [Compound 72, N-(4-(3-(1-methyl-1H-indazol-6-yl)-1,4-dihydro-thieno[2′,3′:4,5]cyclopenta [1,2-c]pyrazol-6-yl)phenyl)tetrahydro-2H-pyran-4-amine] | 0.03 to 0.1 | 0.01 to 0.03 | > 10 | > 10 | > 50
C[C@@H]1COCCN1Cc1ccc(-c2cc3c(s2)Cc2c(-c4ccc5cnn(C)c5c4)n[nH]c2-3)cc1 [Compound 74, (R)-3-methyl-4-(4-(3-(1-methyl-1H-indazol-6-yl)-1,4-dihydrothieno [2′,3′:4,5]cyclopenta [1,2-c]pyrazol-6-yl)benzyl)morpholine] | < 0.03 | 0.001 to 0.01 | > 10 | > 10 | > 50
Cn1ncc2ccc(-c3n[nH]c4c3Cc3sc(N5CCOCC5)cc3-4)cc21 [Compound 78, 4-(3-(1-methyl-1H-indazol-6-yl)-1,4-dihydro-thieno[2′,3′:4,5]cyclopenta [1,2-c]pyrazol-6-yl) morpholine] | < 0.03 | 0.001 to 0.01 | 1 to 10 | > 10 | > 50
Cn1ncc2ccc(-c3n[nH]c4c3Cc3sc(N5CCOCC5=O)cc3-4)cc21 [Compound 79, 4-(3-(1-methyl-1H-indazol-6-yl)-1,4-dihydro-thieno[2′,3′:4,5]cyclopenta [1,2-c]pyrazol-6-yl) morpholin-3-one] | < 0.03 | 0.001 to 0.01 | 1 to 10 | > 10 | > 50
Cn1ncc2ccc(-c3n[nH]c4c3Cc3sc(-c5ccc(CN6CCC(N7CCOCC7)CC6)cc5)cc3-4)cc21 [Compound 80, 4-(1-(4-(3-(1-methyl-1H-indazol-6-yl)-1,4-dihydro-thieno[2′,3′:4,5]cyclopenta [1,2-c]pyrazol-6-yl)benzyl)piperidin-4-yl) morpholine] | < 0.03 | 0.001 to 0.01 | > 10 | > 10 | > 50
Cn1ncc2ccc(-c3n[nH]c4c3Cc3sc(C5CCNCC5)cc3-4)cc21 [Compound 96, 3-(1-methyl-1H-indazol-6-yl)-6-(piperidin-4-yl)-1,4-dihydrothieno [2′,3′:4,5]cyclopenta [1,2-c]pyrazole] | < 0.03 | 0.001 to 0.01 | 1 to 10 | 0.3 to 1 | > 50
Cn1ncc2ccc(-c3n[nH]c4c3Cc3sc(C5CCN(C(=O)CN6CCOCC6)CC5)cc3-4)cc21 [Compound 98, 1-(4-(3-(1-methyl-1H-indazol-6-yl)-1,4-dihydro-thieno[2′,3′:4,5]cyclopenta [1,2-c]pyrazol-6-yl)piperidin-1-yl)-2-morpholinoethan-1-one] | < 0.03 | 0.001 to 0.01 | 1 to 10 | 0.3 to 1 | > 50

More lines, main results first:

IC50 [2] [µM] | IC50 [5] [µM] | SMILES | IC50 [1] [µM] | IC50 [3] [µM] | inhibition at 0.03 µM [4] [%]
< 0.03 | 0.001 to 0.01 | C[C@H]1COCCN1Cc1ccc(-c2cc3c(s2)Cc2c(-c4ccc5cnn(C)c5c4)n[nH]c2-3)cc1 [Compound 75, (S)-3-methyl-4-(4-(3-(1-methyl-1H-indazol-6-yl)-1,4-dihydrothieno [2′,3′:4,5]cyclopenta [1,2-c]pyrazol-6-yl)benzyl)morpholine] | > 10 | > 10 | > 50
< 0.03 | 0.03 to 0.1 | Cn1ncc2ccc(-c3n[nH]c4c3Cc3sc(-c5ccc(CN6CCCOCC6)cc5)cc3-4)cc21 [Compound 97, 4-(4-(3-(1-methyl-1H-indazol-6-yl)-1,4-dihydro-thieno[2′,3′:4,5]cyclopenta [1,2-c]pyrazol-6-yl)benzyl)-1,4-oxazepane] | 1 to 10 | 1 to 10 | > 50
< 0.03 | 0.001 to 0.01 | Cn1ncc2ccc(-c3n[nH]c4c3Cc3sc(-c5ccc(CN6CCCC6)cc5)cc3-4)cc21 [Compound 99, 3-(1-methyl-1H-indazol-6-yl)-6-(4-(pyrrolidin-1-ylmethyl)phenyl)-1,4-dihydrothieno[2′,3′:4,5] cyclopenta[1,2-c]pyrazole] | > 10 | 1 to 10 | > 50
< 0.03 | 0.001 to 0.01 | Cn1ncc2ccc(-c3n[nH]c4c3Cc3sc(-c5ccc(CN6CCCCC6)cc5)cc3-4)cc21 [Compound 100, 3-(1-methyl-1H-indazol-6-yl)-6-(4-(piperidin-1-ylmethyl)phenyl)-1,4-dihydrothieno[2′,3′:4,5] cyclopenta[1,2-c]pyrazole] | > 10 | 1 to 10 | > 50
0.03 to 0.1 | 0.001 to 0.01 | Cn1ncc2ccc(-c3n[nH]c4c3Cc3sc(-c5ccc(CN6CC7(COC7)C6)cc5)cc3-4)cc21 [Compound 102, 6-(4-(3-(1-methyl-1H-indazol-6-yl)-1,4-dihydro-thieno[2′,3′:4,5]cyclopenta [1,2-c]pyrazol-6-yl)benzyl)-2-oxa-6-azaspiro [3.3]heptane] | > 10 | > 10 | > 50
< 0.03 | 0.001 to 0.01 | Cn1ncc2ccc(-c3n[nH]c4c3Cc3sc(-c5ccc(CN6CCC6)cc5)cc3-4)cc21 [Compound 103, 6-(4-(azetidin-1-ylmethyl)phenyl)-3-(1-methyl-1H-indazol-6-yl)-1,4-dihydro-thieno[2′,3′:4,5]cyclopenta [1,2-c]pyrazole] | > 10 | > 10 | > 50
< 0.03 | 0.001 to 0.01 | COC1CN(Cc2ccc(-c3cc4c(s3)Cc3c(-c5ccc6cnn(C)c6c5)n[nH]c3-4)cc2)C1 [Compound 105, 6-(4-((3-methoxyazeti-din-1-yl)methyl)phenyl)-3-(1-methyl-1H-indazol-6-yl)-1,4-dihydrothieno [2′,3′:4,5]cyclopenta [1,2-c]pyrazole] | > 10 | > 10 | > 50
